Experiments:
[1] = test system: Trypsin; assay: Human osteoporosis fibroblasts trypsin (BAEE) activity; type: cell-based; conditions: read-out: Trypsin BAEE IC50; Table XI; human osteoporosis fibroblasts, 60 min incubation
Excerpt: 1. Trypsin- N-benzoyl-L-arginine ethyl ester pH 8.0, hydrolytic product 253 nm.

[2] = test system: Aryl sulphatase; assay: Mouse macrophage aryl sulphatase activity; type: cell-based; conditions: read-out: Aryl Sulphatase IC50; Table VII; mouse macrophage cultured cells, 60 min incubation
[3] = test system: Elastase; assay: Mouse macrophage elastase activity; type: cell-based; conditions: read-out: Elastase IC50; Table VIII; mouse macrophages, 60 min incubation
[4] = test system: Prostaglandin cyclooxygenase; assay: Mouse macrophage prostaglandin cyclooxygenase activity; type: cell-based; conditions: read-out: Prostaglandin Cyclooxygenase IC50; Table VIII; mouse macrophages, 60 min incubation
Excerpt: 3. Mouse macrophages J774A.1 BALB/c
(§1) Prostaglandin synthetase purified beef seminal vesicle ^3 H arachidonic acid (86.2 Ci/mmol), tlc separation.

[5] = test system: Cf1 male mice; assay: Writhing reflex, 0.6% acetic acid; type: in vivo; set-up: response vs control in vivo: dose or concentration left out as unconfirmed; conditions: Mus musculus, ip, read-out: Writhing Reflex Cf1 Mice
[6] = test system: Acid phosphatase; assay: Mouse macrophage acid phosphatase activity; type: cell-based; conditions: read-out: Acid Phosphatase IC50; Table VII; mouse macrophage cultured cells, 60 min incubation
[7] = test system: Cathepsin; assay: Human leukocyte cathepsin; type: cell-based; conditions: read-out: Cathepsin IC50; Table XII; human leukocytes, 60 min incubation
Excerpt: 5. Human peripheral leukocytes, RPMI-1788
(§2) 2. Acid Cathepsin D -azocasein-pH 5.0, hydrolytic azo-peptide produce 366 nm.

[8] = molecular target: Clostridium histolyticum Collagenase Type II; assay: Commercial collagenase type II; type: biochemical; conditions: Table IX; commercial enzyme preparation
Excerpt: 4. Collagenase II, Clostridium histolyticum, cartilage collagen.

[9] = test system: Prostaglandin cyclooxygenase; assay: Human osteoporosis fibroblasts prostaglandin cyclooxygenase activity; type: cell-based; conditions: read-out: Prostaglandin Cyclooxygense IC50, Table XI, 60 min incubation
[10] = test system: Trypsin; assay: Mouse macrophage trypsin (BAEE) activity; type: cell-based; conditions: read-out: Trypsin BAEE IC50; Table VIII; mouse macrophages, 60 min incubation
[11] = test system: Elastase; assay: Human osteoporosis fibroblasts elastase activity; type: cell-based; conditions: read-out: Elastase IC50; Table XI; human osteoporosis fibroblasts, 60 min incubation
Excerpt: 2. Elastase- N-succinyl-L-alanyl-L-alanine-p-nitroanilide, pH 8.0, p-nitro anilide 410 nm.

[12] = molecular target: T1, Cathepsin D (Homo sapiens, UniProt P07339); assay: Human osteoporosis fibroblasts cathepsin D (azo-casein) activity; type: cell-based; conditions: read-out: Cathepsin D IC50; Table X; human osteoporosis fibroblasts, DMEM +10% FCS + P/S
T1 construct: azocasein assay pH 5.0
T1 sequence (P07339 65-412): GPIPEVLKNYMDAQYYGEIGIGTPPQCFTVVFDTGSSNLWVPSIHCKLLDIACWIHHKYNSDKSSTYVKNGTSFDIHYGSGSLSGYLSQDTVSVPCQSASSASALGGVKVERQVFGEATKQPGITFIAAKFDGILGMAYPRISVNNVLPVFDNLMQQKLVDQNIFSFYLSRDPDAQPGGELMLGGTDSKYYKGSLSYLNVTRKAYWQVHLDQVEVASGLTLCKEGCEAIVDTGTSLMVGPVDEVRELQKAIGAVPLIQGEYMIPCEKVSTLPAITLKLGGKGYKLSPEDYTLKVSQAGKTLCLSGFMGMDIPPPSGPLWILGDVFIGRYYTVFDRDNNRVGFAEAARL
Excerpt: Osteoporosis Human Fibroblast-CRL-1140, Be SA1

[13] = test system: Aryl sulphatase; assay: Human osteoporosis fibroblasts aryl sulphatase activity; type: cell-based; conditions: read-out: Aryl Sulphatase IC50; Table X; human osteoporosis fibroblasts
Excerpt: 3. Aryl sulphatase- p-nitrocatechol sulfate, pH
5. 8 p-nitro-catechol product 510 nm.

[14] = molecular target: Acid phosphatase; assay: Mouse hepatic lysosomal acid phosphatase activity; type: biochemical; conditions: for IC50: Table V, mouse hepatic, 60 min incubation
Excerpt: (§3) 1. Cf1 male mouse hepatic 10% homogenates in 0.25M sucrose+0.001MEDTA,pH 7.2.
(§4) Lysosomal Enzymes - free and total [triton X-100].
(§5) 1. Acid phosphatase -beta glycerol-3-phosphate, pH 5.0, released IP 720 nm.
Acid phosphatase activity -

[15] = test system: Sprague Dawley Rats; assay: Anti-inflammatory activity in Sprague Dawley rats; type: in vivo; conditions: Table IV; 8 mg/kg I.P.
[16] = molecular target: T2, Cathepsin D (Mus musculus, UniProt P18242); assay: Mouse hepatic lysosomal cathepsin D activity; type: biochemical; conditions: for IC50: read-out: Cathepsin D IC50, Table V, mouse hepatic, 60 min incubation
T2 construct: azocasein assay pH 5.0
T2 sequence (P18242 65-410): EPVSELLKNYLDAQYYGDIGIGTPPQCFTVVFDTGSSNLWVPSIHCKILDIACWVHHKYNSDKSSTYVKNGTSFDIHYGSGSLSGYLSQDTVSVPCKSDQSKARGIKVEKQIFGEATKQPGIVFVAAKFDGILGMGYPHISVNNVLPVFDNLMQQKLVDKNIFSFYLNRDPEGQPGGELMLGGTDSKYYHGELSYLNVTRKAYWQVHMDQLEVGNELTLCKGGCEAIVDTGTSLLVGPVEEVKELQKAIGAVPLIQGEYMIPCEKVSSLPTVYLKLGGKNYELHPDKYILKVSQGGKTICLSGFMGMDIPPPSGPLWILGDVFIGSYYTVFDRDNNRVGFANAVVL
Excerpt: as §3, §4, §2
Cathepsin azo casein activity -

[17] = molecular target: T3, 5'-lipoxygenase (Mus musculus, UniProt P48999); assay: Mouse hepatic 5'-lipoxygenase activity; type: biochemical
T3 construct: Cf1 male mouse hepatic 10% homogenates; from tissue; host or cells: CF1 male mouse liver, 10% homogenate
T3 sequence (P48999 1-674): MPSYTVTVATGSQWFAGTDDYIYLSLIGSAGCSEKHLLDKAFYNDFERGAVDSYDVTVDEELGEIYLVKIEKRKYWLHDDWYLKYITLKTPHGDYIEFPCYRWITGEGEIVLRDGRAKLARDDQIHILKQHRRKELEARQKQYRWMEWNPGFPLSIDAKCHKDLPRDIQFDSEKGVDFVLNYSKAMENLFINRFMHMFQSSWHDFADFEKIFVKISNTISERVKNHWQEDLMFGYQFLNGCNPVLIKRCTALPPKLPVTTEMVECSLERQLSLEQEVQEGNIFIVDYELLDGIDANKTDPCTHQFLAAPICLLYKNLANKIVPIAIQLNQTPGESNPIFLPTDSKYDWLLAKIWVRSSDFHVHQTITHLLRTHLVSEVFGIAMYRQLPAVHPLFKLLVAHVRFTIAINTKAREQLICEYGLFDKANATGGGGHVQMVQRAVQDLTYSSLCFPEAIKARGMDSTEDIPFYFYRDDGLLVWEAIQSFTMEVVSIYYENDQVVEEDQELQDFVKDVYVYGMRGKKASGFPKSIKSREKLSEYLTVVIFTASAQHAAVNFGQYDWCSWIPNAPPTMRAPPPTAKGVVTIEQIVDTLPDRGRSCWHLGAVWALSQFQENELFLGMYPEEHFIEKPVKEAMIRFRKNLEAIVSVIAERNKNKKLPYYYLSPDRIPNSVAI
Excerpt: as §3
5'-lipoxygenase Mylari, B.L., et al, J. Med.

[18] = test system: Acid phosphatase; assay: Human osteoporosis fibroblasts acid phosphatase activity; type: cell-based; conditions: read-out: Acid Phosphatase IC50; Table X; human osteoporosis fibroblasts
Excerpt: as §5

[19] = molecular target: T4, Cathepsin (Rattus norvegicus, UniProt P24268); assay: Rat PMNs cathepsin activity; type: cell-based; conditions: pH 5; 5 × 10^-6 M, N=6; read-out: Rat PMNs Cathep.
T4 construct: azocasein assay pH 5.0
T4 sequence (P24268 65-407): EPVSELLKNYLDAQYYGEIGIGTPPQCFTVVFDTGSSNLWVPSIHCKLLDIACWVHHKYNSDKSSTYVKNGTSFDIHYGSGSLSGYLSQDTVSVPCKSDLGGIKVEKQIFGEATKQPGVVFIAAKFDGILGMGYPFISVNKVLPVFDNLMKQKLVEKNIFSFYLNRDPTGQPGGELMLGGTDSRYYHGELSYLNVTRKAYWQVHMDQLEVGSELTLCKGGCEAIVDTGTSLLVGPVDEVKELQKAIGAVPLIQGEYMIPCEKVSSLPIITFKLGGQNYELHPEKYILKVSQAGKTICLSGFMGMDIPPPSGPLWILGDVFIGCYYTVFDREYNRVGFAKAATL
Excerpt: (§6) 2. PMNs-polymorphonuclear neutrophils-rat peritoneal cavity 0.5% oyster glycogen.
as §2

[20] = test system: Acid phosphatase; assay: Rat PMNs acid phosphatase activity; type: cell-based; conditions: 5 × 10^-6 M, N=6; 5 µM
Excerpt: as §6, §5

[21] = test system: Cf1 male mice; assay: Anti-inflammatory screen, Winter's test, 2% carrageenan hind foot; type: in vivo; conditions: Table 1; drugs 8 or 10 mg/kg I.P. 2X; Indomethacin 10 mg/kg
Procedure: Anti-inflammatory Screen- Cf1 - male mice-Winter's Test 2% carrageenan S.C. plantar surface of hind foot, drugs administered @8 or 10 mg/kg I.P. 2X
Winter, C.A., et al, Proc. Soc.

[22] = test system: cAMP; assay: PMNs cAMP levels, Gilman's radioimmune assay; type: cell-based, rat; conditions: 5 × 10^-6 M, N=6
Excerpt: as §6
cAMP levels Gilman's radioimmune assay. ^3 H(G)Cyclic-3', 5'-adenosine monophosphate.

[23] = in vivo; conditions: mouse, Table 1, N=6
Procedure: Amine borane compounds (0 to 100 mg/kg) were administered to CF1 male mice as a single injection with six mice for each dosage. Mice were weighed daily and the number of deaths was recorded each day for a 14 day period. The LD50 value was determined by the procedure of S.C. Gad and C.S. Weil, "Statistics for Toxicologists" in Principles and Methods of Toxicology, A.W. Hayes, Ed., 2nd Edition, P 435-483 Raven Press, New York 1982.

[24] = test system: Sprague Dawley male rats; assay: Anti-pleurisy screen, Evans blue + carrageenan; type: in vivo; conditions: Table 1
[25] = test system: Hepatic oxidative phosphorylation; assay: Hepatic oxidative phosphorylation, Gilson oxygraph; type: biochemical, mouse; conditions: 10^-6 M; 1 µM
Excerpt: as §3

[26] = test system: Phosphorus; assay: Serum and urine inorganic phosphorus levels in vivo; conditions: Cf1 male mice, 8 mg/kg/day I.P. 14 days, N=6
[27] = molecular target: T5, Prostaglandin synthetase (Bos taurus, UniProt O62664); assay: Prostaglandin synthetase (cyclooxygenase), purified beef seminal vesicle; type: biochemical
T5 construct: Prostaglandin synthetase purified beef seminal vesicle; from tissue
T5 sequence (O62664 25-600): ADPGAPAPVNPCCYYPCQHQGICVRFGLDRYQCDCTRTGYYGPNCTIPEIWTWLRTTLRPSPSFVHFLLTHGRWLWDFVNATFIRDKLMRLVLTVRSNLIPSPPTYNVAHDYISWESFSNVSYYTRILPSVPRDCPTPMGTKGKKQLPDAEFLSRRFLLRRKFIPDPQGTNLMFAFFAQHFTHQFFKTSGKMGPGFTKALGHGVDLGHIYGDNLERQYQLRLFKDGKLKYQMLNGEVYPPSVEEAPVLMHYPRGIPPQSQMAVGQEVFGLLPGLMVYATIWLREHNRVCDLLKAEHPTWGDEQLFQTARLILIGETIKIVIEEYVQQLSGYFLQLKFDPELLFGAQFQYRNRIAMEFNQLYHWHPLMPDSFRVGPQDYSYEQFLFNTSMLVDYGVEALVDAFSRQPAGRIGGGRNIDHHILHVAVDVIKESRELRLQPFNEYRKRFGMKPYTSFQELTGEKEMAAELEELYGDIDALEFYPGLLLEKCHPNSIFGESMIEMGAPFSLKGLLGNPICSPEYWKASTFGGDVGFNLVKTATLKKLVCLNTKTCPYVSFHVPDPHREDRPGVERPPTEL
Excerpt: as §1

[28] = test system: Cf1 male mice; assay: Writhing reflex, 0.6% acetic acid; type: in vivo; conditions: Table 1; Indomethacin 10 mg/kg
Procedure: Writhing reflex- Cf1 -male mice- 0.6% acetic acid I.P. drugs administered @20 mg/kg/ I.P. 20 min. later - the # of stretches/10 min.
Hendershot, L.C., et al, J.

[29] = test system: Calcium; assay: Serum and urine calcium levels in vivo; conditions: Cf1 male mice, 8 mg/kg/day I.P. 14 days, N=6
[30] = test system: Hydroxyproline; assay: Serum and urine hydroxyproline levels in vivo; conditions: Cf1 male mice, 8 mg/kg/day I.P. 14 days, N=6
[31] = test system: Sprague Dawley male rats; assay: Chronic adjuvant arthritis screen, Mycobacterium butyricum; type: in vivo; conditions: Table 1; Indomethacin 10 mg/kg
[32] = test system: urinary excretion of calcium, magnesium, phosphorus; conditions: in the diet at 3 mg/day; cited from earlier work

In the case of `C[B-](C#N)(C#N)[N+](C)(C)C` [Compound 16, Trimethylamine-methyldicyanoborane], the IC50 [1] is reported as 3.35 µM, the IC50 [2] is reported as 8.48 µM and the IC50 [3] is reported as 2.02 µM. The IC50 [4] was 3.05 µM, the response vs control in vivo [5] was 33.9% and the IC50 [6] was 1.1 µM. The IC50 [7] was 65.2 µM, the IC50 [8] was 110 µM and the IC50 [9] was 9.29 µM. For the same molecule, the IC50 [10] was 1.62 µM and the IC50 [11] was 3.6 µM.

For `C[NH+](C)[BH2-]C#N` [Compound 10, Dimethylamine-cyanoborane], the IC50 [12] was 1.28 µM, the IC50 [1] was 6.43 µM and the IC50 [13] was 7.91 µM. The IC50 [2] was 9 µM, the IC50 [3] was 2.53 µM and the IC50 [14] was 8.9 µM. For the same molecule, the IC50 [4] was 5.92 µM, the response vs control in vivo [5] was 14.7% and the “Anti-Inflammatory Activity Sprague Dawley Rats” value [15] was 61 % Control. It also gave an IC50 [6] of 1.13 µM, an IC50 [7] of 53.8 µM and an IC50 [16] of 3.2 µM. The IC50 [8] was 106 µM, the IC50 [9] was 5.58 µM and the IC50 [17] was 22.9 µM. It also gave an IC50 [18] of 8.7 µM, an IC50 [10] of 2.44 µM and an IC50 [11] of 3.36 µM.

For `C[N+](C)(C)[BH2-]C#N` [Compound 2, Trimethylamine-cyanoborane], the IC50 [12] was 2.01 µM, the IC50 [1] was 3.98 µM and the IC50 [13] was 8.87 µM. The activity at 5 µM [19] was 4%, the “Rat PMNs Acid Phoph.” value [20] was 35 + 5 % Control and the Anti-inflammatory [21] was 42 % Control. The IC50 [2] was 9.29 µM, the IC50 [3] was 1.35 µM and the “Mouse Liver Acid Phosph.” value ([14]; 5 × 10^-6 M, N=6, 5 µM) was 69 + 4 % Control. For the same molecule, the IC50 [14] was 3.51 µM, the “PMNs cAMP” value [22] was 245 % Control and the IC50 [4] was 5.88 µM. The LD50 at 336 h [23] was 70 mg/kg, the Anti-pleurisy [24] was 65 % Control and the response vs control in vivo [5] was 18%. For the same molecule, the “Anti-Inflammatory Activity Sprague Dawley Rats” value [15] was 65 % Control, the IC50 [6] was 1.05 µM and the “Hepatic Oxidative Phosphorylation Succinate State 3” value [25] was 51 + 20 % Control. The “Hepatic Oxidative Phosphorylation Succinate State 4” value [25] was 133 + 20 % Control, the “Hepatic Oxidative Phosphorylation alpha-Ketoglutrate State 3” value [25] was 41 + 9 % Control and the “Hepatic Oxidative Phosphorylation alpha-Ketoglutrate State 4” value [25] was 85 + 21 % Control. It also gave an IC50 [7] of 77.1 µM, an activity at 5 µM ([16]; pH 5, read-out: Mouse Liver Cathep.) of 6% and an IC50 [16] of 0.72 µM. The IC50 [9] was 4.26 µM, the Phosphorus serum [26] was 81.6 % Control and the Phosphorus urine [26] was 39.6 % Control. The IC50 [27] was 5.9 µM, the Writhing [28] was 18 % Control and the IC50 [18] was 15.9 µM. The IC50 [10] was 1.41 µM, the Calcium serum [29] was 109.7 % Control and the Calcium urine [29] was 50.8 % Control. For the same molecule, the Hydroxyproline serum [30] was 71.7 % Control, the Hydroxyproline urine [30] was 42.5 % Control and the Anti-arthritic [31] was 4 % Control. It also gave an IC50 [11] of 3.29 µM.

In the case of `O.O.O.O.O.O.O.O.O.O.[Na+].[Na+].[O-]B1OB2OB([O-])OB(O1)O2` [sodium borate], the “urinary excretion of calcium, magnesium and perhaps phosphorus” value [32] is given as “blocks the urinary excretion of calcium, magnesium and perhaps phosphorus”.

From US5312816A, “Method of combatting osteoporosis in mammalian subjects, utilizing organic boron compounds” (priority 1993, dated 1994)
